The results in this text go back to ChEMBL document CHEMBL5465560, “Selectivity Literature for EUbOPEN Chemogenomic Library” (2024).

For experiment [1], the target named is T1, Inhibitor of nuclear factor kappa-B kinase subunit alpha (Homo sapiens) (UniProt O15111).
T1 sequence (whole entry): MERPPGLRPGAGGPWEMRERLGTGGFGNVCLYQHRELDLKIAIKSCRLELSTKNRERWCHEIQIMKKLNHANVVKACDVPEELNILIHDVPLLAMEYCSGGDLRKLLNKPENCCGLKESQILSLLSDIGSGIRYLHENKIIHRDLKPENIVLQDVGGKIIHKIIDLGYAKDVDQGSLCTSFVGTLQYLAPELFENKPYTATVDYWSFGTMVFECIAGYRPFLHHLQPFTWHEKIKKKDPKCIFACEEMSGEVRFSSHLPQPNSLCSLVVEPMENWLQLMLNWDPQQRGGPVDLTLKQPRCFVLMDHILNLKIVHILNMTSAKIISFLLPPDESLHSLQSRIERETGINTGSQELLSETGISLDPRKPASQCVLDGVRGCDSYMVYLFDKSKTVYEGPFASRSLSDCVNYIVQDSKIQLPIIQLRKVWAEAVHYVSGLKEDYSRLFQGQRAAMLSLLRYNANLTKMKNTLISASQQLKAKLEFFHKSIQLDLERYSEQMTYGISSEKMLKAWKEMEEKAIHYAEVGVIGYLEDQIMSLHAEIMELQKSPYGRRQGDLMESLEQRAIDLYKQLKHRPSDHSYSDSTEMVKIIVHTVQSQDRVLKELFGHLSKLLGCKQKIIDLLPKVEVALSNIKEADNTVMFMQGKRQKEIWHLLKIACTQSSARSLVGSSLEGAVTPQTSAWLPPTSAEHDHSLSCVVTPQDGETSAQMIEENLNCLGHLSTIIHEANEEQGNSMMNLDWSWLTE
Briefly: Selectivity interaction (ActivX KiNativ screen (ex vivo kinase selectivity in human PBMCs)) EUB0001619a CHUK. Type of experiment: cell-based. To be noted: PBMC, at 1 µM.

Experiment [2] concerns the target T2, Dual specificity mitogen-activated protein kinase kinase 4 (Homo sapiens) (UniProt P45985).
T2 sequence (whole entry): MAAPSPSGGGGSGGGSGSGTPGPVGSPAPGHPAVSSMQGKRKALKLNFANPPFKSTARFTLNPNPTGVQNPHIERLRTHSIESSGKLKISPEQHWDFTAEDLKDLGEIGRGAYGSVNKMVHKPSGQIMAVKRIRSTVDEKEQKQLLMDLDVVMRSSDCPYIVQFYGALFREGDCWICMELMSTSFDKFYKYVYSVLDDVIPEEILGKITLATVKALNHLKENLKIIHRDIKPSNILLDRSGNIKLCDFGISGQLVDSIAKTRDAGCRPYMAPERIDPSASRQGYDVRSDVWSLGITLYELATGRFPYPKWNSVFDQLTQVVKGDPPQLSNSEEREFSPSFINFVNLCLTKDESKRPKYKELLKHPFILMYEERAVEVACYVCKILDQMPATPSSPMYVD
In words: Selectivity interaction (ActivX KiNativ screen (ex vivo kinase selectivity in human PBMCs)) EUB0001619a MAP2K4. As to conditions: PBMC, at 1 µM. Type of experiment: cell-based.

In experiment [3] the target is Serine/threonine-protein kinase SIK2 (Homo sapiens) (UniProt Q9H0K1). Briefly: Selectivity interaction (KinomeScan (DiscoverX)) EUB0001619a SIK2. To be noted: at 1 µM.
Sequence of Serine/threonine-protein kinase SIK2 (Homo sapiens) (Q9H0K1 whole entry, looked up): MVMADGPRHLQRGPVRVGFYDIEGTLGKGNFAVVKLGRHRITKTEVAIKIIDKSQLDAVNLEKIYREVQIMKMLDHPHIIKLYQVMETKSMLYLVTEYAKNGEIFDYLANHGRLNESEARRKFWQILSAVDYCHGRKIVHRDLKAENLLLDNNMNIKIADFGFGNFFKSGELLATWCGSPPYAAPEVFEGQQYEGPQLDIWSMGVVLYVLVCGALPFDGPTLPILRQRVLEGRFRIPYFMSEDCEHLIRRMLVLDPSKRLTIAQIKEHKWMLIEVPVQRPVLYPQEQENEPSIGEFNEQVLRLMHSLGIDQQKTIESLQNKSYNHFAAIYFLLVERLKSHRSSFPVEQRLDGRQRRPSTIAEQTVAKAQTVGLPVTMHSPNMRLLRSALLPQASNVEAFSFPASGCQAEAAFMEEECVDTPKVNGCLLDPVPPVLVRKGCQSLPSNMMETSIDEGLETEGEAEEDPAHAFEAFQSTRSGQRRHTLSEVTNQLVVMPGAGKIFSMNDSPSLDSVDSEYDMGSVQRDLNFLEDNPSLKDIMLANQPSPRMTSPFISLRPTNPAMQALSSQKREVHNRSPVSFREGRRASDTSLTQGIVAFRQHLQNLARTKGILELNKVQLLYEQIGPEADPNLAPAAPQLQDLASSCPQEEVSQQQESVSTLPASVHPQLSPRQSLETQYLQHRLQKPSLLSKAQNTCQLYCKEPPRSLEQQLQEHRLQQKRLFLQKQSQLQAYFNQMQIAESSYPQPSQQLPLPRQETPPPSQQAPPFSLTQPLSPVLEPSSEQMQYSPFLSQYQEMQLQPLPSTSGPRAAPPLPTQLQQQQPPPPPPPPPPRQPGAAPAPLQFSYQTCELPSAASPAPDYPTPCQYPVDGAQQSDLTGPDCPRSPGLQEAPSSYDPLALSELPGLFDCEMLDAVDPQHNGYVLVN
The target of experiment [4] is Proto-oncogene tyrosine-protein kinase receptor Ret (Homo sapiens, UniProt P07949). Briefly: Selectivity interaction (Kinase screening (Nanosyn)) EUB0000604a RET.
Sequence of Proto-oncogene tyrosine-protein kinase receptor Ret (P07949 whole entry): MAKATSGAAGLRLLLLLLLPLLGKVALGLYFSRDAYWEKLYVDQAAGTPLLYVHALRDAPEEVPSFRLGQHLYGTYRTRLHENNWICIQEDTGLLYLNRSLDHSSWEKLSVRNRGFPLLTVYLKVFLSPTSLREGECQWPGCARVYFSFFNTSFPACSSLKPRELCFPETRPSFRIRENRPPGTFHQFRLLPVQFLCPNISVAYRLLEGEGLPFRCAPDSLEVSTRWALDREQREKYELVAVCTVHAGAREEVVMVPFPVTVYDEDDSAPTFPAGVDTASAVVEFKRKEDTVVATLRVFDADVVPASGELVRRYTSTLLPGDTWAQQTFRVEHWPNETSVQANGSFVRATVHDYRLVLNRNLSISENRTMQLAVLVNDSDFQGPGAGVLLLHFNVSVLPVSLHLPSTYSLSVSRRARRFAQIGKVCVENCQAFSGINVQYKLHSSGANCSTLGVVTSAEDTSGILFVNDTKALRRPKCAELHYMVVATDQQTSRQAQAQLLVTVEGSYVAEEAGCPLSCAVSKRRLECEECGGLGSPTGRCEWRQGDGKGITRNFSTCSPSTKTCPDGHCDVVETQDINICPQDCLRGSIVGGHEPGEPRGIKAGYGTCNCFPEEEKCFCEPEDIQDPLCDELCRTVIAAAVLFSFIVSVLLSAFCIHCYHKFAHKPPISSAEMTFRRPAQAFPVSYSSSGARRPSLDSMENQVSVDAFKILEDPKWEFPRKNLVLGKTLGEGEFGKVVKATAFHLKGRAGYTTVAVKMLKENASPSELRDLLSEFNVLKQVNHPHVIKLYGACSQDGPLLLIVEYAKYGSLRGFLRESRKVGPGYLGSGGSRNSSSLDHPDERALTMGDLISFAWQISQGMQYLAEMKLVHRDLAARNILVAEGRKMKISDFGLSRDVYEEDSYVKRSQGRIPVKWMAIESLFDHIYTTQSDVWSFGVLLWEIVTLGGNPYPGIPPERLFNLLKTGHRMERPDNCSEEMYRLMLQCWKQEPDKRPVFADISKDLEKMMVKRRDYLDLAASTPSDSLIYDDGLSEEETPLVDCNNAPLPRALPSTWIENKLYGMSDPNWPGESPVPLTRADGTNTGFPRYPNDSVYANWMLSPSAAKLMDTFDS
The target in experiment [5] is Calcium/calmodulin-dependent protein kinase type II subunit beta (Homo sapiens) (UniProt Q13554). Briefly: Selectivity interaction (ActivX KiNativ screen (kinase selectivity in THP-1 cell lysates)) EUB0000639a CAMK2B. It is filed as subcellular. To be noted: lysate.
Sequence of Calcium/calmodulin-dependent protein kinase type II subunit beta (Homo sapiens) (Q13554 whole entry): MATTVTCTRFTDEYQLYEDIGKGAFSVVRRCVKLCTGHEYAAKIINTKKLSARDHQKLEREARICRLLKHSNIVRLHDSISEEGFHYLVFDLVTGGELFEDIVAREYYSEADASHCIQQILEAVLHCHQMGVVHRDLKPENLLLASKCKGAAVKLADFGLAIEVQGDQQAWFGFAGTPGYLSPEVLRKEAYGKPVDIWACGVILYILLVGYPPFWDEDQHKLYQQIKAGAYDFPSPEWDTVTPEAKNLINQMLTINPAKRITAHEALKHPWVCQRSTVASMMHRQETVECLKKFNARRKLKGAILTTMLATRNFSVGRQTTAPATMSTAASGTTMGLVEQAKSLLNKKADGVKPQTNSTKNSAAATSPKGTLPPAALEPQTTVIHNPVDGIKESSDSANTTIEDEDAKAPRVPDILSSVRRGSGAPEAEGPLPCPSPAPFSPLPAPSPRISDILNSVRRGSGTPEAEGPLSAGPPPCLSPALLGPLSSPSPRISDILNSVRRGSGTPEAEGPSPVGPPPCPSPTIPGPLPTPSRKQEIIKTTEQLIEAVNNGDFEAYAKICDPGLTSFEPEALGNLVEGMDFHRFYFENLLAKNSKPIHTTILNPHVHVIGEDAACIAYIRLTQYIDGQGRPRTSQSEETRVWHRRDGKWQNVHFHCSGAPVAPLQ
For experiment [6], the target named is Serine/threonine-protein kinase WNK1 (Homo sapiens) (UniProt Q9H4A3). In words: Selectivity interaction (ActivX KiNativ screen (kinase selectivity in THP-1 cell lysates)) EUB0000639a WNK1. It is filed as subcellular. To be noted: lysate, at 0.01 µM.
The target in experiment [7] is T3, Tyrosine-protein kinase receptor TYRO3 (Homo sapiens) (UniProt Q06418).
T3 sequence (whole entry): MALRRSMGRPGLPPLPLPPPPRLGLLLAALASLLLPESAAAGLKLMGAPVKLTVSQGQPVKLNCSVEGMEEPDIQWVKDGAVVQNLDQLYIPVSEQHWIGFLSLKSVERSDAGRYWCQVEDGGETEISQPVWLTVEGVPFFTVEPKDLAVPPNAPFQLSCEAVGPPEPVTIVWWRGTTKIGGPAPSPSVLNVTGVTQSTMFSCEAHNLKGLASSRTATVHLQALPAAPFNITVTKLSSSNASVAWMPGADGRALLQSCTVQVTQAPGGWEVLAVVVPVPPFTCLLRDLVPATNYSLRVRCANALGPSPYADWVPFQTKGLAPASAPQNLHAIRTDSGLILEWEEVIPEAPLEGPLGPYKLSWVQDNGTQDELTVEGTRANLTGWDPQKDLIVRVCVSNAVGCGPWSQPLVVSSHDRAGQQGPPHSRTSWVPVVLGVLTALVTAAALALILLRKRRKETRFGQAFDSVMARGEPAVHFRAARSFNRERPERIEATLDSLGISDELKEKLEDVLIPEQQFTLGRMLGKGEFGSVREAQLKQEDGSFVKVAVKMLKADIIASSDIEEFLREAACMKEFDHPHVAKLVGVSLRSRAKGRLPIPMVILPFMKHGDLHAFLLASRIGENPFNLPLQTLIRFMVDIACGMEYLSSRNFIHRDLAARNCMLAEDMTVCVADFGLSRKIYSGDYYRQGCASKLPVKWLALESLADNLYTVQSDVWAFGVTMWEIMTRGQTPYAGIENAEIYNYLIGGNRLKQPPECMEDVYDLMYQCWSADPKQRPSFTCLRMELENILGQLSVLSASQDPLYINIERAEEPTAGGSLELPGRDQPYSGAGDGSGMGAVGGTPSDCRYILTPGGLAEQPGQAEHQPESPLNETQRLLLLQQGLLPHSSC
Briefly: Selectivity interaction (KinomeScan (DiscoverX)) EUB0000045b TYRO3.

In experiment [8] the target is Serine/threonine-protein kinase PAK 2 (Homo sapiens) (UniProt Q13177). In words: Selectivity interaction (KinomeScan (DiscoverX)) EUB0001049a PAK2. As to conditions: at 1 µM.
Sequence of Serine/threonine-protein kinase PAK 2 (Homo sapiens) (Q13177 whole entry): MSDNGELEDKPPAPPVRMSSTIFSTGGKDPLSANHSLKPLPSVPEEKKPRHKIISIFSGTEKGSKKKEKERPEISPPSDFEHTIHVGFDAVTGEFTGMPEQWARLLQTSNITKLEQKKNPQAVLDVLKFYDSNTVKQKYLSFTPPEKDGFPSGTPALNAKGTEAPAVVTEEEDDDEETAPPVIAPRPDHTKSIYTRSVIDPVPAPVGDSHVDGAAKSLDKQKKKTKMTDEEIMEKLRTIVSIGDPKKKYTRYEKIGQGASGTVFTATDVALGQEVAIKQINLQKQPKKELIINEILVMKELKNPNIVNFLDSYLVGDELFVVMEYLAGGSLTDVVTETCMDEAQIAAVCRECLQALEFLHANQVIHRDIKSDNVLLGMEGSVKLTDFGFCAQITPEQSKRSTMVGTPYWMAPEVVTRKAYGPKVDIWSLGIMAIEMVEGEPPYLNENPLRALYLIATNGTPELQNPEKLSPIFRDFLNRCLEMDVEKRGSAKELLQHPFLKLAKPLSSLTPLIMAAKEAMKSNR
Experiment [9] has as its target Casein kinase II subunit alpha' (Homo sapiens) (UniProt P19784). In words: Selectivity interaction (KinomeScan (DiscoverX)) EUB0000618a CSNK2A2. To be noted: at 10 µM.
Experiment [10] deals with Transcription intermediary factor 1-beta (Homo sapiens) (UniProt Q13263). Briefly: Selectivity interaction (Human bromodomain panel (DSF assay)) EUB0000233b TRIM28.
Sequence of Transcription intermediary factor 1-beta (Homo sapiens) (Q13263 whole entry): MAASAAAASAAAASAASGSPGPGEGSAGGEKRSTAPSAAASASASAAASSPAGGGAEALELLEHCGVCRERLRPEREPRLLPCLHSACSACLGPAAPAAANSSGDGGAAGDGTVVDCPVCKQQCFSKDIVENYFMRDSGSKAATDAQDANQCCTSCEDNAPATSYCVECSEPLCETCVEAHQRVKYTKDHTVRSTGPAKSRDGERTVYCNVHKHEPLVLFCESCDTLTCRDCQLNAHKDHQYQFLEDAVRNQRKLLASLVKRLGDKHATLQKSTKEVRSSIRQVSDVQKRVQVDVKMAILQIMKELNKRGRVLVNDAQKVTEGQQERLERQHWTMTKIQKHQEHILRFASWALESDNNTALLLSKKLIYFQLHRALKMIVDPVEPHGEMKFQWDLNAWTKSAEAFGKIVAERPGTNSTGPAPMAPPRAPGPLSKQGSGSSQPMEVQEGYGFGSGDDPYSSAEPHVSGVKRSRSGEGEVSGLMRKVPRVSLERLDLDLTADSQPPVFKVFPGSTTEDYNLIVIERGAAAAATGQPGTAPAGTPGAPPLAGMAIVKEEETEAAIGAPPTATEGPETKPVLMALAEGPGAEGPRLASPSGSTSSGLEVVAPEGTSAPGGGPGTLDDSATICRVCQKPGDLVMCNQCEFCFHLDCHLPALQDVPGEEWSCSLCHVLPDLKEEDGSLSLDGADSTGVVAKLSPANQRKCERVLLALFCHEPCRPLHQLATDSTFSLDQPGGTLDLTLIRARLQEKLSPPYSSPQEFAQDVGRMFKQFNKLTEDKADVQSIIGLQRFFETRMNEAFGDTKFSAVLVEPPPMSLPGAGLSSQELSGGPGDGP
Experiment [11] deals with Serine/threonine-protein kinase Nek7 (Homo sapiens) (UniProt Q8TDX7). Briefly: Selectivity interaction (Kinase panel (DSF assay)) EUB0001558a NEK7.
Sequence of Serine/threonine-protein kinase Nek7 (Homo sapiens) (Q8TDX7 whole entry, looked up): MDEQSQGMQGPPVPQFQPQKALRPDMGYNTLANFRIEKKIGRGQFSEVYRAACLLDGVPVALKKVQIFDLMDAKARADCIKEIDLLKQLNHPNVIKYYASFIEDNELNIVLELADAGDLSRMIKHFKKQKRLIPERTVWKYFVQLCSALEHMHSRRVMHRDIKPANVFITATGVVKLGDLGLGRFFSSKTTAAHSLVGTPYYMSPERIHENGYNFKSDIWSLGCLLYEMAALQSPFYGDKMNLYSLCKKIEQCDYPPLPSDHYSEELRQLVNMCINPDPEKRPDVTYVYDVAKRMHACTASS
Another experiment has as its target Histamine H3 receptor (Homo sapiens, UniProt Q9Y5N1). In words: Selectivity interaction (GPCR panel (PDSP screen)) EUB0001079a HRH3. As to conditions: at 10 µM.

Sequence of Histamine H3 receptor (Q9Y5N1 whole entry): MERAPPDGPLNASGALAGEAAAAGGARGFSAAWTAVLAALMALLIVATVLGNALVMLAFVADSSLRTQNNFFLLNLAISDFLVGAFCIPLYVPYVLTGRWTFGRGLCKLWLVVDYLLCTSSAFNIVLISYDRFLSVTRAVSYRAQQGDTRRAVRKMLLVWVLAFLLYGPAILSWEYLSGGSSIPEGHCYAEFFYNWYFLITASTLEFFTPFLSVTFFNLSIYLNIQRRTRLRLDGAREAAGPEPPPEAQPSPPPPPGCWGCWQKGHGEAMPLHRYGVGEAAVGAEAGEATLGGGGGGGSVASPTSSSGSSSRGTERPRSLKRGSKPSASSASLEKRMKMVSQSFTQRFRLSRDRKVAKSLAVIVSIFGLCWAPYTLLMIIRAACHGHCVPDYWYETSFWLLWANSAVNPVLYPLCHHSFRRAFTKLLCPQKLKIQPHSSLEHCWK

In the case of `N#Cc1cccc(-c2c[nH]c3ncnc(N4CCOCC4)c23)c1`, the % of inhibition in experiment [1] is -7%; in experiment [2] it was 2%. Further, in experiment [3], the % of control amounted to 32%.

Take `Cc1cnc(Nc2ccc(F)cc2Cl)nc1-c1c[nH]c(C(=O)N[C@H](CO)c2cccc(Cl)c2)c1`: the % of inhibition in experiment [4] was 3%.

With `CC[C@@H]1[C@H](F)C(=O)N[C@@H]1COc1nccc2cc(C(N)=O)c(OC)cc12` [ZIMLOVISERTIB], the % of inhibition in experiment [5] (at 0.01 µM) stood at 3.3%; in experiment [5] (at 0.04 µM), 16.7%; in experiment [5] (at 0.2 µM), 6.9%; in experiment [5] (at 1 µM), 25.1%; in experiment [5] (at 5 µM), 56.2%; in experiment [6], 3.3%.

For the compound `C=CC(=O)Nc1cc(-n2c(=O)ccc3cnc4ccc(-c5ccc(NS(C)(=O)=O)cc5)cc4c32)ccc1C`, the % of control in experiment [7] (at 1 µM) and in [7] (at 10 µM) was 100% each time.

In experiment [8], `COc1cc(Nc2nc(C)cc(-c3cnn4nc(OC)ccc34)n2)cc(C(F)(F)F)c1` returned a % of control of 75%.

Compound `O[C@H]1CC[C@H](Nc2ncc3nc(Nc4c(F)cc(F)cc4F)n([C@H]4CCOC4)c3n2)CC1` returned a % of control in [9] of 96%.

The compound `CN(C)CCCOc1ccc(-c2cc(NCCCn3cccn3)nc(S(C)(=O)=O)n2)cc1` registered a dTM in experiment [10] of less than 2 K.

In the case of `CC(C)(O)[C@H](F)CN1Cc2cc(NC(=O)c3cnn4cccnc34)c(N3CCOCC3)cc2C1=O`, the dTM in experiment [11] is -0.2 K.

Consider `Nc1cnc(N2CCc3cc(S(=O)(=O)Nc4c(F)cc(Cl)cc4F)cc(N4CCCC4=O)c32)nc1` [TP-020n], for which the % of inhibition at Histamine H3 receptor is -1.21%.
